Source: patent publication US20080161366A1, “AMINOALKYL SUBSTITUTED ARYL SULFAMIDE DERIVATIVES AND METHODS OF THEIR USE” (Wyeth, priority 2006, published 2008)
Counter-ions that a name gives are not always drawn.

What follows are compounds tested against human norepinephrine transporter (hNET) (Homo sapiens, UniProt P23975) (assay: hNET uptake, Protocol B: cell based norepinephrine reuptake assay using recombinant hNET (MDCK-Net6 cells)). Details: MDCK-Net6, read-out: NE uptake (Protocol B) % inhibition @ 6 uM.
human norepinephrine transporter (hNET), sequence (P23975 whole entry): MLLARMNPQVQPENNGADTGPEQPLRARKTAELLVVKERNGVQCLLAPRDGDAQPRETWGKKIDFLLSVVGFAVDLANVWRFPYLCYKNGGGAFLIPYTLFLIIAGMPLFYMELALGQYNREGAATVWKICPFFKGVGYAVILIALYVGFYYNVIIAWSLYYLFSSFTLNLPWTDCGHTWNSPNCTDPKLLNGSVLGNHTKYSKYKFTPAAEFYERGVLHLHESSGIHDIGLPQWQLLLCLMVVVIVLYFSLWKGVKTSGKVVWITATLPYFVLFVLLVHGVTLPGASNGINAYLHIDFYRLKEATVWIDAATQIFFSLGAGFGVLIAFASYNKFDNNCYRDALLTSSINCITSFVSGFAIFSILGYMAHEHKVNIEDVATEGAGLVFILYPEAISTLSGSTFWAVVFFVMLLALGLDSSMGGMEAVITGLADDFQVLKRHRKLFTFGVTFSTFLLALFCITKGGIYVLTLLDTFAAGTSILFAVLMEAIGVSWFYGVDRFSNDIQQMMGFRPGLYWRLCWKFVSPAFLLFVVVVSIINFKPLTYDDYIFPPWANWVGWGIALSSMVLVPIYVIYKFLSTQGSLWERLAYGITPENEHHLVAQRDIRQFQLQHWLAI

| inhibition at 6 µM [%] | Structure (SMILES) |
| --- | --- |
| 57 | CN(C)CCCCN1c2ccccc2N(c2ccc(F)cc2Cl)S1(=O)=O [Example 88, 4-[3-(2-chloro-4-fluorophenyl)-2,2-dioxido-2,1,3-benzothiadiazol-1(3H)-yl]-N,N-dimethylbutan-1-amine hydrochloride] |

Same assay, conditions: NE uptake (Protocol B) IC50 (nM), MDCK-Net6 cells, 3H-NE 16 nM

| Structure (SMILES) | IC50 [nM] |
| --- | --- |
| CN(C)CCCN1c2ccccc2N(c2ccc(F)cc2F)S1(=O)=O [Example 118, 3-[3-(2,4-difluorophenyl)-2,2-dioxido-2,1,3-benzothiadiazol-1(3H)-yl]-N,N-dimethylpropan-1-amine hydrochloride] | 153 |
| CNCCCN1c2ccccc2N(c2ccc3ccccc3c2)S1(=O)=O [Example 14, N-methyl-3-[3-(2-naphthyl)-2,2-dioxido-2,1,3-benzothiadiazol-1(3H)-yl]propan-1-amine] | 2620 |
| CNCCCN1c2cc(C)ccc2N(c2ccccc2)S1(=O)=O [Example 40, N-methyl-3-(6-methyl-2,2-dioxido-3-phenyl-2,1,3-benzothiadiazol-1(3H)-yl)propan-1-amine] | 252 |
| NCCCN1c2ccccc2N(c2c(F)cccc2F)S1(=O)=O [Example 69, 3-[3-(2,6-Difluorophenyl)-2,2-dioxido-2,1,3-benzothiadiazol-1(3H)-yl]propan-1-amine hydrochloride] | 10.4 |
| CNCCCN1c2ccccc2N(c2cccc(C)n2)S1(=O)=O [Example 32, N-methyl-3-[3-(6-methylpyridin-2-yl)-2,2-dioxido-2,1,3-benzothiadiazol-1(3H)-yl]propan-1-amine hydrochloride] | 192 |
| CNCCCN1c2ccccc2N(c2ncccc2C)S1(=O)=O [Example 27, N-methyl-3-[3-(3-methylpyridin-2-yl)-2,2-dioxido-2,1,3-benzothiadiazol-1(3H)-yl]propan-1-amine hydrochloride] | 11.7 |
| NCCCN1c2ccccc2N(c2ccc(F)cc2Cl)S1(=O)=O [Example 61, 3-[3-(2-Chloro-4-fluorophenyl)-2,2-dioxido-2,1,3-benzothiadiazol-1(3H)-yl]propan-1-amine hydrochloride] | 113 |
| O=S1(=O)N(CCCNC2CC2)c2ccccc2N1c1ccc(F)cc1F [Example 85, N-{3-[3-(2,4-Difluorophenyl)-2,2-dioxido-2,1,3-benzothiadiazol-1(3H)-yl]propyl}cyclopropanamine hydrochloride] | 203 |
| CNCCCCN1c2ccccc2N(c2ccc(F)c(F)c2)S1(=O)=O [Example 110, 4-[3-(3,4-difluorophenyl)-2,2-dioxido-2,1,3-benzothiadiazol-1(3H)-yl]-N-methylbutan-1-amine] | 39 |
| CNCCCN1c2ccc(F)cc2N(c2ccccc2)S1(=O)=O [Example 44, 3-(5-fluoro-2,2-dioxido-3-phenyl-2,1,3-benzothiadiazol-1(3H)-yl)-N-methylpropan-1-amine] | 4.26 |
| CC(C)NCCCN1c2ccccc2N(c2c(F)cccc2F)S1(=O)=O [Example 127, 3-[3-(2,6-difluorophenyl)-2,2-dioxido-2,1,3-benzothiadiazol-1(3H)-yl]-N-isopropylpropan-1-amine hydrochloride] | 148 |
| CNCCCCCN1c2ccccc2N(c2ccc(F)cc2Cl)S1(=O)=O [Example 89, 5-[3-(2-chloro-4-fluorophenyl)-2,2-dioxido-2,1,3-benzothiadiazol-1(3H)-yl]-N-methylpentan-1-amine hydrochloride] | 2110 |
| CNCCCN1c2ccccc2N(c2cc(C)ccn2)S1(=O)=O [Example 30, N-methyl-3-[3-(4-methylpyridin-2-yl)-2,2-dioxido-2,1,3-benzothiadiazol-1(3H)-yl]propan-1-amine hydrochloride] | 15.3 |
| CNCCCCN1c2ccccc2N(c2ccc(F)cc2)S1(=O)=O [Example 82, 4-[3-(4-Fluorophenyl)-2,2-dioxido-2,1,3-benzothiadiazol-1(3H)-yl]-N-methylbutan-1-amine hydrochloride] | 46 |
| CNCCCN1c2c(F)cccc2N(c2cccc(F)c2)S1(=O)=O [Example 42, 3-[7-fluoro-3-(3-fluorophenyl)-2,2-dioxido-2,1,3-benzothiadiazol-1(3H)-yl]-N-methylpropan-1-amine] | 86.3 |
| CNCCCN1c2ccccc2N(c2cnccc2C)S1(=O)=O [Example 33, N-methyl-3-[3-(4-methylpyridin-3-yl)-2,2-dioxido-2,1,3-benzothiadiazol-1(3H)-yl]propan-1-amine hydrochloride] | 282 |
| CNCCCN1c2ccccc2N(c2cc(F)cc(F)c2)S1(=O)=O [Example 47, 3-[3-(3,5-difluorophenyl)-2,2-dioxido-2,1,3-benzothiadiazol-1(3H)-yl]-N-methylpropan-1-amine hydrochloride] | 2.73 |
| CNCCCN1c2ccccc2N(c2ccc(F)cc2OC)S1(=O)=O [Example 64, 3-[3-(4-fluoro-2-methoxyphenyl)-2,2-dioxido-2,1,3-benzothiadiazol-1(3H)-yl]-N-methylpropan-1-amine] | 295 |
| CNCCCN1c2ccccc2N(c2cccc(C(F)(F)F)c2)S1(=O)=O [Example 51, 3-{2,2-dioxido-3-[3-(trifluoromethyl)phenyl]-2,1,3-benzothiadiazol-1(3H)-yl}-N-methylpropan-1-amine hydrochloride] | 3170 |

The remaining lines, values ahead:

| IC50 [nM] | Structure (SMILES) |
| --- | --- |
| 298 | CN(C)CCCCCN1c2ccccc2N(c2ccccc2F)S1(=O)=O [Example 67, 5-[3-(2-fluorophenyl)-2,2-dioxido-2,1,3-benzothiadiazol-1(3H)-yl]-N,N-dimethylpentan-1-amine] |
| 325 | CNCCCN1c2ccccc2N(c2ccc(OC)cc2F)S1(=O)=O [Example 91, 3-[3-(2-fluoro-4-methoxyphenyl)-2,2-dioxido-2,1,3-benzothiadiazol-1(3H)-yl]-N-methylpropan-1-amine hydrochloride] |
| 50.9 | CNCCCN1c2ccccc2N(c2ccc(F)cc2C)S1(=O)=O [Example 62, 3-[3-(4-fluoro-2-methylphenyl)-2,2-dioxido-2,1,3-benzothiadiazol-1(3H)-yl]-N-methylpropan-1-amine] |
| 24.5 | CNCCCN1c2ccccc2N(c2cccc(Br)c2)S1(=O)=O [Example 53, 3-[3-(3-bromophenyl)-2,2-dioxido-2,1,3-benzothiadiazol-1(3H)-yl]-N-methylpropan-1-amine hydrochloride] |
| 2770 | CCNCCCN1c2ccccc2N(c2ccc(F)c(F)c2F)S1(=O)=O [Example 112, 3-[2,2-dioxido-3-(2,3,4-trifluorophenyl)-2,1,3-benzothiadiazol-1(3H)-yl]-N-ethylpropan-1-amine] |
| 365 | O=S1(=O)N(CCCNC2CCNCC2)c2ccccc2N1c1ccccc1F [Example 131, N-{3-[3-(2-fluorophenyl)-2,2-dioxido-2,1,3-benzothiadiazol-1(3H)-yl]propyl}piperidin-4-amine dihydrochloride] |
| 1500 | CCNCCCCN1c2ccccc2N(c2ccc(F)cc2F)S1(=O)=O [Example 121, 4-[3-(2,4-difluorophenyl)-2,2-dioxido-2,1,3-benzothiadiazol-1(3H)-yl]-N-ethylbutan-1-amine hydrochloride] |
| 20 | CNCCCN1c2ccccc2N(c2ccc(F)c(F)c2)S1(=O)=O [Example 109, 3-[3-(3,4-difluorophenyl)-2,2-dioxido-2,1,3-benzothiadiazol-1(3H)-yl]-N-methylpropan-1-amine] |
| 190 | CNCCCN1c2ccccc2N(c2ccccc2OC(F)(F)F)S1(=O)=O [Example 50, 3-{2,2-dioxido-3-[2-(trifluoromethoxy)phenyl]-2,1,3-benzothiadiazol-1(3H)-yl}-N-methylpropan-1-amine hydrochloride] |
| 125 | Cc1ccc(N2c3ccccc3N(CCCCN)S2(=O)=O)c(F)c1 [Example 105, 4-[3-(2-fluoro-4-methylphenyl)-2,2-dioxido-2,1,3-benzothiadiazol-1(3H)-yl]butan-1-amine] |
| 2 | CNCCCCN1c2ccccc2N(c2c(F)cccc2F)S1(=O)=O [Example 83, 4-[3-(2,6-Difluorophenyl)-2,2-dioxido-2,1,3-benzothiadiazol-1(3H)-yl]-N-methylbutan-1-amine hydrochloride] |
| 45 | O=S1(=O)N(CCNC2CCNCC2)c2ccccc2N1c1ccccc1F [Example 133, N-{3-[3-(2-fluorophenyl)-2,2-dioxido-2,1,3-benzothiadiazol-1(3H)-yl]ethyl}piperidin-4-amine dihydrochloride] |
| 2.56 | CCNCCCN1c2ccccc2N(c2ccccc2F)S1(=O)=O [Example 57, N-ethyl-3-[3-(2-fluorophenyl)-2,2-dioxido-2,1,3-benzothiadiazol-1(3H)-yl]propan-1-amine] |
| 206 | CNCCCN1c2ccc(-c3ccccc3)cc2N(c2ccccc2F)S1(=O)=O [Example 71, 3-[3-(2-fluorophenyl)-2,2-dioxido-5-phenyl-2,1,3-benzothiadiazol-1(3H)-yl]-N-methylpropan-1-amine hydrochloride] |
| 20.5 | CNCCCN1c2ccccc2N(c2ccc(Cl)cc2)S1(=O)=O [Example 1, 3-[3-(4-chlorophenyl)-2,2-dioxido-2,1,3-benzothiadiazol-1(3H)-yl]-N-methylpropan-1-amine] |
| 6.87 | CNCCCN1c2ccccc2N(c2ccc(F)cc2)S1(=O)=O [Example 6, 3-[3-(4-fluorophenyl)-2,2-dioxido-2,1,3-benzothiadiazol-1(3H)-yl]-N-methylpropan-1-amine] |
| 15 | CCNCCCN1c2ccccc2N(c2c(F)cccc2F)S1(=O)=O [Example 126, 3-[3-(2,6-difluorophenyl)-2,2-dioxido-2,1,3-benzothiadiazol-1(3H)-yl]-N-ethylpropan-1-amine hydrochloride] |
| 2.74 | CNCCCN1c2ccccc2N(c2ccccc2Cl)S1(=O)=O [Example 52, 3-[3-(2-chlorophenyl)-2,2-dioxido-2,1,3-benzothiadiazol-1(3H)-yl]-N-methylpropan-1-amine hydrochloride] |
| 3 | CNCCCN1c2ccccc2N(c2ccc(O)cc2F)S1(=O)=O [Example 92, 3-fluoro-4-{3-[3-(methylamino)propyl]-2,2-dioxido-2,1,3-benzothiadiazol-1(3H)-yl}phenol hydrochloride] |
